Holding throughout (test): NCI-60 cell line screen, 48 h
The subject of assay [1] is RXF 393.
Assay [2] relates to SF-268.
Assay [3] deals with UO-31.
In assay [4] the test system is LOX IMVI.
For assay [5], the system named is NCI-H226.
In assay [6] the test system is HL-60.
Assay [7] relates to TK-10.
The test system of assay [8] is EKVX.
For assay [9], the system named is K562.
In assay [10] the test system is A498.
Assay [11] relates to NCI-H460.
In assay [12] the test system is SNB-19.
Assay [13] concerns SF-539.
In assay [14] the test system is HT-29.
In assay [15] the test system is RPMI-8226.
In assay [16] the test system is SK-MEL-2.
For assay [17], the system named is CCRF-CEM.
Assay [18] concerns U-251.
Assay [19] deals with MOLT-4.
For assay [20], the system named is HCC 2998.

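96-well plates; 48 h exposure; 5 concentrations. Endpoints by linear interpolation between flanking doses. Not reached: highest tested concentration assigned. Abbreviation: GI50, concentration required for 50% inhibition of growth.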 Calls of active or inactive are those of the source. Cut-off read from the data, not from the text of the source: active = GI50 up to about 1.1 µM and inactive = higher. Bounds are passed on as bounds.

In the case of `CC(=O)c1nccc2c1c(C)nc1ccccc12`, the GI50 in assay [1] was 38.5 µM (inactive); in assay [2], 64.3 µM (inactive); in assay [3], 55.7 µM (inactive); in [4], 57 µM (inactive); in assay [5] it was 10.4 µM (inactive); in assay [6], 67.8 µM (inactive). The GI50 in assay [7] is > 100 µM (inactive); in [8], 52.2 µM (inactive); in [9], 71.3 µM (inactive); in assay [10], 48 µM (inactive); in assay [11], 32.8 µM (inactive); in assay [12], > 100 µM (inactive). The GI50 in [13] was > 100 µM (inactive); in [14], 74.5 µM (inactive); in assay [15] it was 16.4 µM (inactive); in assay [16] it was > 100 µM (inactive); in assay [17] it was 16.4 µM (inactive); in [18] it was > 100 µM (inactive). For the same compound, in assay [19], the GI50 is 44.6 µM (inactive).
Consider `CC1(C)C2CCC3(OCCO3)C1C1OC12` (stereo not given), for which the GI50 in assay [1], in [2], in assay [3], in assay [4], in assay [5] and in assay [6] was > 100 µM (inactive) each time. Moreover, the GI50 was > 100 µM (inactive) in [7]; > 100 µM (inactive) in assay [8]; > 100 µM (inactive) in assay [9]; > 100 µM (inactive) in assay [10]; > 100 µM (inactive) in assay [11]; 30 µM (inactive) in assay [12]. Besides, the GI50 in assay [13], in assay [14], in assay [15], in assay [16], in assay [17] and in assay [18] was > 100 µM (inactive) in each case. The GI50 in [19] is > 100 µM (inactive).
Take `CCOC(=O)c1nc2ccc(C(F)(F)F)cc2nc1NCc1ccc(Cl)c(Cl)c1`: the GI50 is 24.4 µM (inactive) in assay [1]; 39.9 µM (inactive) in assay [2]; 45 µM (inactive) in assay [3]; 30.8 µM (inactive) in [4]; 30.8 µM (inactive) in assay [5]; 41.5 µM (inactive) in assay [6]. For the same compound, the GI50 in assay [7] is 34.2 µM (inactive); in assay [8], 22.8 µM (inactive); in [9], 80 µM (inactive); in assay [10], 30.2 µM (inactive); in [11] it was 45.6 µM (inactive); in [12], 28.3 µM (inactive). Further, the GI50 in [13] was 61.9 µM (inactive); in assay [14], 29.1 µM (inactive); in assay [15] it was > 100 µM (inactive); in assay [16], 63.8 µM (inactive); in [17] it was > 100 µM (inactive); in assay [18], 58.6 µM (inactive). Further, the GI50 in assay [19] is > 100 µM (inactive).
Consider `O=C(CC(=O)Nc1ccc(C(=O)O)cc1)Nc1ccc(C(=O)O)cc1`, for which the GI50 in [2] was 34.6 µM (inactive); in [3], > 100 µM (inactive); in assay [4], > 100 µM (inactive); in assay [5] it was > 100 µM (inactive); in assay [6] it was > 100 µM (inactive); in assay [7], > 100 µM (inactive). Moreover, the GI50 in [8], in assay [9], in assay [20], in assay [10], in [11] and in assay [12] was > 100 µM (inactive) throughout. The GI50 is > 100 µM (inactive) in assay [13]; > 100 µM (inactive) in [14]; > 100 µM (inactive) in assay [15]; 17.3 µM (inactive) in assay [16]; > 100 µM (inactive) in assay [17]; > 100 µM (inactive) in assay [18]. The GI50 in assay [19] is > 100 µM (inactive).
For the compound `N#CN=C(N(Cc1ccccc1)Cc1ccccc1)N(Cc1ccccc1)Cc1ccccc1`, the GI50 in assay [2] was > 100 µM (inactive); in [3], 5.64 µM (inactive); in assay [4] it was 20.4 µM (inactive); in [5] it was 32.5 µM (inactive); in assay [6], 5.14 µM (inactive); in [8], 7.11 µM (inactive). The GI50 in assay [9] was 4.36 µM (inactive); in assay [20] it was 47 µM (inactive); in [10], 14.7 µM (inactive); in [11], 3.88 µM (inactive); in assay [12] it was 28.7 µM (inactive); in [13], 46.7 µM (inactive). For the same compound, the GI50 in assay [14] was 6.22 µM (inactive); in assay [15] it was 3.88 µM (inactive); in assay [16], 12 µM (inactive); in assay [17], 5.73 µM (inactive); in assay [19], 2.74 µM (inactive).
Take `O=C1/C(=C/c2ccccc2)CN(C(=O)C(Cl)(Cl)Cl)C/C1=C\c1ccccc1`: the GI50 in assay [1] is 1.89 µM (inactive); in [2] it was 3.33 µM (inactive); in assay [3], 2.59 µM (inactive); in assay [4], 0.94 µM (active); in assay [6], 0.159 µM (active); in assay [7], 2.57 µM (inactive). The GI50 in assay [8] was 9.23 µM (inactive); in [9] it was 0.43 µM (active); in assay [10], 4.24 µM (inactive); in assay [11], 2.08 µM (inactive); in [12], 2.82 µM (inactive); in assay [13], 3.12 µM (inactive). Besides, the GI50 is 1.23 µM (inactive) in assay [14]; 0.0348 µM (active) in [15]; 2.91 µM (inactive) in [16]; 0.551 µM (active) in assay [17]; 1.64 µM (inactive) in assay [18]; 1.36 µM (inactive) in assay [19].
Turning to `CC1(C)OCC[C@@H]1[Si](C)(C)C`, the GI50 in assay [1] is 16.5 µM (inactive); in assay [2], 36.2 µM (inactive); in [3], 42.9 µM (inactive); in assay [4], 56.9 µM (inactive); in [5], 70.1 µM (inactive); in assay [7] it was 73.5 µM (inactive). The GI50 is 26.2 µM (inactive) in assay [8]; 21.4 µM (inactive) in assay [9]; 30.1 µM (inactive) in assay [10]; > 100 µM (inactive) in assay [11]; > 100 µM (inactive) in [12]; > 100 µM (inactive) in assay [13]. The GI50 in [14] is > 100 µM (inactive); in [15], 29.6 µM (inactive); in assay [16] it was > 100 µM (inactive); in assay [17], 26.9 µM (inactive); in [18], > 100 µM (inactive); in assay [19], 33 µM (inactive).
As to `N#Cc1c(Nc2ccc(F)cc2)[n+]([O-])c2ccc(Cl)cc2[n+]1[O-]`, the GI50 in assay [1] is 4.36 µM (inactive); in assay [2], 2.53 µM (inactive); in assay [3], 4.58 µM (inactive); in assay [4], 0.975 µM (active); in [5], 4.51 µM (inactive); in assay [7], 19.9 µM (inactive). In addition, the GI50 in assay [9] was 2.47 µM (inactive); in [10], 2.88 µM (inactive); in [11], 2.38 µM (inactive); in [12], 6 µM (inactive); in assay [13], 2.56 µM (inactive); in [14] it was 3.47 µM (inactive). Besides, the GI50 in assay [15] was 2.72 µM (inactive); in assay [16] it was 3.67 µM (inactive); in assay [17], 2.62 µM (inactive); in assay [18] it was 2.38 µM (inactive); in assay [19], 2.52 µM (inactive).
Consider `COC(=O)C1CCC(=O)N1C(c1ccc2c(c1)OCO2)c1cc(OC)c(OC)c(OC)c1` (stereo not given), for which the GI50 in [2], in assay [3], in [4], in assay [5], in [6] and in assay [7] was > 100 µM (inactive) in each case. For the same compound, the GI50 in assay [8], in [9], in assay [20], in assay [10], in [11] and in assay [12] was > 100 µM (inactive) in each case. Besides, the GI50 in assay [13], in assay [14], in [15], in assay [16], in [17] and in assay [18] was > 100 µM (inactive) each time. Moreover, the GI50 in assay [19] is > 100 µM (inactive).
For `O=C1OC(c2ccc(O)cc2)(c2ccc(O)cc2)c2ccc(Cl)c3cccc1c23.O=C1OC(c2ccc(O)cc2)(c2ccc(O)cc2)c2cccc3c(Cl)ccc1c23`, the GI50 in [1] was 10.8 µM (inactive); in assay [2] it was 15.9 µM (inactive); in assay [3] it was 23 µM (inactive); in assay [4] it was 10.9 µM (inactive); in assay [5], 12.9 µM (inactive); in [7] it was 13.6 µM (inactive). Moreover, the GI50 in assay [8] is 0.075 µM (active); in [9], 21.2 µM (inactive); in [10], 19.1 µM (inactive); in [11], 12.4 µM (inactive); in assay [12], 23.1 µM (inactive); in assay [13], 10.7 µM (inactive). Further, the GI50 in assay [14] is 12.2 µM (inactive); in assay [15] it was 12.5 µM (inactive); in assay [16], 12.6 µM (inactive); in assay [17], 15.5 µM (inactive); in assay [18], 11.9 µM (inactive).
As for `Cc1ncc([N+](=O)[O-])n1CC[N+](C)([O-])CCCCn1ccnc1[N+](=O)[O-]` (stereo not given), the GI50 in assay [1], in assay [2], in assay [3], in [4], in assay [5] and in assay [6] was > 100 µM (inactive) each time. For the same compound, the GI50 in [7], in [8], in [9], in [10], in assay [11] and in [13] was > 100 µM (inactive) throughout. Also, the GI50 in assay [14], in assay [15], in assay [16], in assay [17], in assay [18] and in assay [19] was > 100 µM (inactive) throughout.

The record behind these values is ChEMBL document CHEMBL1201862, “PubChem BioAssay data set” (2004).
